Reference: patent publication US20220073525A1, “COMPOSITIONS FOR INHIBITING UBIQUITIN SPECIFIC PROTEASE 1” (FORMA Therapeutics, Inc., priority 2019, published 2022)

molecular target: USP1 (Homo sapiens, UniProt O94782); test: Biochemical Assay for USP1 Inhibition (Ub-Rho 110 fluorescence); settings: Table 5; 30 min preincubation, Enzyme 0.025 nM, Substrate Ub-Rho 110 25 nM; read-out: IC50 (μm)
Procedure, shortened: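 USP1 at 0.025 nM, preincubated 30 min with compound (25 μM to 1.3 nM, 10-point), then Ub-Rho 110 at 25 nM (<<Km) in Tris-HCl pH 8.0, 1 mM GSH, 0.03% BGG, 0.01% Triton X-100. Fluorescence read kinetically over 11 min; % inhibition versus no-enzyme and DMSO controls, IC50 from 4-parameter logistic fit.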

Sequence of USP1 (O94782 whole entry): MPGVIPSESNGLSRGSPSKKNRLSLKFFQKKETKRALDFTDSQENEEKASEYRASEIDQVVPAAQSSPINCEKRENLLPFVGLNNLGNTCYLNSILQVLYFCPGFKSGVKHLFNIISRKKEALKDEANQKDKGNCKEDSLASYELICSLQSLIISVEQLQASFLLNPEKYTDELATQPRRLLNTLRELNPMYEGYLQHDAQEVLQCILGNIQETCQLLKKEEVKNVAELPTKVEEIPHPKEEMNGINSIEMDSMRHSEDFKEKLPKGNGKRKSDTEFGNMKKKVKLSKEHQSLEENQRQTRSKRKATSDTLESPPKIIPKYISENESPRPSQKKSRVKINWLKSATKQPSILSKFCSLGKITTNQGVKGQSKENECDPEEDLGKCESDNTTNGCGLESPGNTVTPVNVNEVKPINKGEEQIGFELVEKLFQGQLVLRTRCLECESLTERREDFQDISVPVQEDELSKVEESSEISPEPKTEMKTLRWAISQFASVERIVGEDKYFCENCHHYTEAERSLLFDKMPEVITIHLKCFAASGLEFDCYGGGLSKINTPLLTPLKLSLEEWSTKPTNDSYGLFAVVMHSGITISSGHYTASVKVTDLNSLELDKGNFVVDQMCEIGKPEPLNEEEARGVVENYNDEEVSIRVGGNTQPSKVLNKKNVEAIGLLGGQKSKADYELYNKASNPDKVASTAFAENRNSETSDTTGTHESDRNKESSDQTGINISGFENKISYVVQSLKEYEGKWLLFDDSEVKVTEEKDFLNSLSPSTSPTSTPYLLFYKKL
Sequence of USP1 (Q8TAF3 whole entry partner): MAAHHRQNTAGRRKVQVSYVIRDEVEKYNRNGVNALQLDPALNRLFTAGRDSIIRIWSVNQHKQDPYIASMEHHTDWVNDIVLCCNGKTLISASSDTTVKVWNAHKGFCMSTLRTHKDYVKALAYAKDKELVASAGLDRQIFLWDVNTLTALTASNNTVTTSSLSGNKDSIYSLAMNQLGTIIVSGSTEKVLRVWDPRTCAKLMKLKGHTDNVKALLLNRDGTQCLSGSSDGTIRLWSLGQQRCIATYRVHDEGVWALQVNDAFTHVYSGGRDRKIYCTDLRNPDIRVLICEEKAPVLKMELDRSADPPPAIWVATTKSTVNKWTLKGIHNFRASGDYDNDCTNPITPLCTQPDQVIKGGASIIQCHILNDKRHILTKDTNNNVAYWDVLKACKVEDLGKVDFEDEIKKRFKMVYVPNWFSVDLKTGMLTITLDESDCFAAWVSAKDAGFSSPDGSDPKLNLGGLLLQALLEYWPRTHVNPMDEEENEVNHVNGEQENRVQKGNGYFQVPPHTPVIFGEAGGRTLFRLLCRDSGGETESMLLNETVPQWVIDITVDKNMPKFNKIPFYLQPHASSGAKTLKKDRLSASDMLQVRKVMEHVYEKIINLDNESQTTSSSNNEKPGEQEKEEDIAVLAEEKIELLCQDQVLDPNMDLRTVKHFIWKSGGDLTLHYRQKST

`Cc1cc(Cl)n(-c2ccc(N3CCn4c(C)nc(-c5cccnc5OC(F)F)c4C3)cc2)n1` [Compound 82, 3-{7-[4-(5-chloro-3-methyl-1H-pyrazol-1-yl)phenyl]-3-methyl-5H,6H,7H,8H-imidazo[1,5-a]pyrazin-1-yl}-2-(difluoromethoxy)pyridine] and `COc1nc(-c2cccnc2C(C)C)c2n1CCN(c1ccc(-c3nc(C(F)(F)F)cn3C)cc1)C2` [Compound 84, 3-(3-methoxy-7-{4-[1-methyl-4-(trifluoromethyl)-1H-imidazol-2-yl]phenyl}-5H,6H,7H,8H-imidazo[1,5-a]pyrazin-1-yl)-2-(propan-2-yl)pyridine] cannot be ordered by IC50: at most 1 µM for the first, at most 1 µM for the second.

First: Cc1nc(-c2cccnc2C(C)C)c2n1CCN(c1cnc(C#N)nc1)C2 [Compound 83, 5-{3-methyl-1-[2-(propan-2-yl)pyridin-3-yl]-5H,6H,7H,8H-imidazo[1,5-a]pyrazin-7-yl}pyrimidine-2-carbonitrile]
Second: Cc1nc(-c2cccnc2C(C)C)c2n1CCN(c1ccc(-c3nc(C(F)(F)F)cn3C)cn1)C2C (stereo not shown) [Compound 86, 2-[3,8-dimethyl-1-[2-(propan-2-yl)pyridin-3-yl]-5H,6H,7H,8H-imidazo[1,5-a]pyrazin-7-yl]-5-[1-methyl-4-(trifluoromethyl)-1H-imidazol-2-yl]pyridine]
The IC50 of the first is higher: over 25 µM for the first, at most 1 µM for the second.

`Cc1nc(-c2cccnc2C(C)C)c2n1CCN(c1ccc(-c3nc(C(F)(F)F)cn3C)cc1)C2C` (stereo not shown) [Compound 85, 3-[3,8-dimethyl-7-{4-[1-methyl-4-(trifluoromethyl)-1H-imidazol-2-yl]phenyl}-5H,6H,7H,8H-imidazo[1,5-a]pyrazin-1-yl]-2-(propan-2-yl)pyridine] gave an IC50 of at most 1 µM.

same assay, conditions: Table 6, additional compounds; 30 min preincubation, Enzyme 0.025 nM, Substrate Ub-Rho 110 25 nM; read-out: IC50

Compared with `Cc1nc(-c2cccnc2C(C)C)c2n1CCCN(Cc1ccc(-c3nc(C(F)(F)F)cn3C)cc1)C2` [Compound C-2, 1-(2-isopropylpyridin-3-yl)-3-methyl-8-(4-(1-methyl-4-(trifluoromethyl)-1H-imidazol-2-yl)benzyl)-6,7,8,9-tetrahydro-5H-imidazo[1,5-a][1,4]diazepine], `Cc1nc(-c2cccnc2C(C)C)c2n1CC(=O)N(c1ccc(-c3nc(C(F)(F)F)cn3C)cc1)C2` [Compound C-3, 1-(2-isopropylpyridin-3-yl)-3-methyl-7-(4-(1-methyl-4-(trifluoromethyl)-1H-imidazol-2-yl)phenyl)-7,8-dihydroimidazo[1,5-a]pyrazin-6(5H)-one] is higher in IC50: 1 to 10 µM for the first, over 25 µM for the second. The first is the more potent here.

`Cc1nc(-c2ccccc2C(C)C)n2cc(N3CCC(c4nc(C(F)(F)F)cn4C)CC3)ccc12` [Compound C-4, 3-(2-isopropylphenyl)-1-methyl-6-(4-(1-methyl-4-(trifluoromethyl)-1H-imidazol-2-yl)piperidin-1-yl)imidazo[1,5-a]pyridine] and `Cc1nc(-c2cccnc2C(C)C)c2n1CCN(c1ccc(-c3nc(C(F)(F)F)cn3C)cc1)C2=O` [Compound C-5, 1-(2-isopropylpyridin-3-yl)-3-methyl-7-(4-(1-methyl-4-(trifluoromethyl)-1H-imidazol-2-yl)phenyl)-6,7-dihydroimidazo[1,5-a]pyrazin-8(5H)-one] cannot be ordered by IC50: over 25 µM for the first, over 25 µM for the second.

Compound `Cc1nc(-c2cccnc2C(C)C)c2n1CCN(C(=O)c1ccc(-c3ccnn3C(C)C)nc1)C2` [Compound C-6, 3-(3-methyl-7-{6-[1-(propan-2-yl)-1H-pyrazol-5-yl]pyridine-3-carbonyl}-5H,6H,7H,8H-imidazo[1,5-a]pyrazin-1-yl)-2-(propan-2-yl)pyridine] has an IC50 of over 25 µM.
